In US20230330059A1, “3-PHENYL-2H-CHROMENE DERIVATIVE AND PHARMACEUTICAL COMPOSITION FOR PREVENTING OR TREATING ALZHEIMER'S, CONTAINING SAME” (NEUROBIONET, INC., priority 2020, published 2023):

Legend:
[1] = system: 5xFAD mice; assay: Y-maze test; format: in vivo, mouse; details: 10 mg/kg orally once a day for 1 month, vs 5xFAD-saline group, FIG. 21
Description: (§1) The experiment was conducted with 5X-FAD transgenic mice having Alzheimer’s disease introduced therein. The 5X FAD mouse is an animal model of Alzheimer’s disease with all the human AD-linked mutations: Swedish (K670N/ […]), Florida (1716V) and London (V7171) in APP (695) and M146L in Presenilin 1
(§2) 5xFAD mice were purchased from Jackson Lab and bred in and in through mating with C57B16/SJL F1 females, based on the information provided by the supplier. Through genotyping, the mice were divided into groups of 7-9 members, including normal groups (WT) and genetically modified groups (5xFAD): 4.5-month-old 5xFAD mice (Tg) and age-matched controls (WT). To the WT or Tg groups, a vehicle or SPA1413 was orally administered at a dose of 10 mg/kg once a day for 1 month. To test whether SPA1413 has a therapeutic effect on Alzheimer’s disease, the mice in 5 groups (WT-vehicle; WT-SPA1413 5xFAD-vehicle; 5xFAD-SPA1413; and 5xFAD-donepezil) were evaluated for cognitive ability.
Memory impairment was evaluated using the Y-shaped maze test. For the Y-shaped maze test, a Y-shaped arm was installed in a water tank. […] After a random number was assigned to each arm, the arm number in which the animal entered was recorded. Memory was assessed by the animal’s ability to remember the route it had taken and to try to navigate the new route.

[2] = system: HEK293 cells overexpressing the dementia gene PSEN1; assay: MTT cytotoxicity in HEK293 cells overexpressing PSEN1; format: cell-based; details: PSEN1 gene-overexpressing HEK293 cell line, 1, 5 and 10 µM, 24 hours, compared to the normal cells; FIG. 16
Description: (§3) HEK293 cells and the HEK293 cells overexpressing the dementia gene PSEN1 were seeded at a density of 2x10^5 cells/well into 96-well plates containing a DMEM medium and stabilized overnight, following by treating the cells with various concentrations (1, 5, and 10 µM) of the sample (SPA1413) for 24 hours. After removal of the culture medium, a 0.5 mg/ml MTT solution was added in an amount of 100 µl to each well and incubated at 37° C. for at least one hour in an incubator. The MTT was removed and 200 µl of DMSO was added to each well to dissolve the formazan. Absorbance was read at 540 nm on an ELISA reader to determine whether or the sample was toxic to the cells.

[3] = system: primary microglial cells treated with beta amyloid oligomer (AB1-40); assay: Cell viability of primary microglia treated with beta amyloid oligomer; format: cell-based, ICR mice; details: 5 µM for 1 hour, then AB1-40 10 µM 24 hours; FIG. 15
Description: Mouse-derived microglia (BV2 cells) purchased from the Korean Cell Line Bank were seeded at a density of 4x10^5 cells/well into 96-well plates, each well containing DMEM (Dulbecco’s Modified Eagle’s Media) supplemented with 10% FBS and 1% antibiotics, and stabilized by incubation for 24 hours. Thereafter, the cells were treated for 24 hours with various concentrations (0.5, 1, and 5 µM) of daidzein, o-desmethylangolensin (O-DMA), S-equal, SPA1413, and SPA1426. After removal of the medium, the cells were treated 0.5 mg/ml 3-(4,5-dimethylthiazol-2-yl)-2,5-diphenyltetrazolium bromide (MTT) solution 1 hour. The reduced formazan was dissolved in 150 µl of dimethyl sulfoxide (DMSO) and absorbance was read at 570 nm in a microspectrophotometer to determine cell viability. Cell viability of the cells treated with each sample was determined relative to that of the untreated normal control (Control), which was set to be 100%, and the results are depicted in FIGS. 3 and 4 (upper).
Primary microglial cells isolated from the brain of 1-year-old ICR mice were seeded at a density of 2x10^5 cells/well into 96-well plates and stabilized for 24 hours. Thereafter, the cells were treated with 5 µM of daidzein, S-equal, SPA1413, or SPA1426 for 1 hour and then with beta amyloid oligomer (AB1-40, 10 µM) for 24 hours at 37° C. Cell viability was assayed in the same manner as in Experimental Example 2.

[4] = system: oligomeric Aβ proteins in cortex and hippocampus of 5xFAD mice; assay: Western blotting of oligomeric Aβ proteins in brain tissue; format: in vivo, mouse; details: 10 mg/kg, FIG. 28
Description: as §2
After the animal behavior experiments, the brain tissues of the experimental animals were recovered, the brain tissues in the cortex and hippocampus regions of one hemisphere were separated, frozen, and stored until use. The tissues were thawed on the test day and treated with a lysis solvent, followed by protein isolation and quantitation. […]
The images of the western blots analyzed for oligomeric Aβ proteins (60-70 kDa) in the cortex and hippocampus of 5xFAD-vehicle and 5xFAD-SPA1413 group animals are presented in FIG. 28, and the band intensity was analyzed and quantified using the image j program.

[5] = system: MHC II-positive microglia in cortex and hippocampus of 5xFAD mice; assay: MHC II-positive activated microglia in brain tissue; format: in vivo, mouse; details: 10 mg/kg, FIGS. 26 and 27
[6] = system: amyloid plaques in cortex and hippocampus of 5xFAD mice; assay: Immunohistochemical assay of amyloid plaques (6E10 antibody, Thioflavin S); format: in vivo, mouse; details: 10 mg/kg, FIGS. 24 and 25
Description: as §2
After the animal behavior experiments, the brain tissues of the experimental animals were recovered, sectioned, and then stained with Thioflavin S for immunostaining chemistry using the 6E10 antibody.
Immunohistochemical staining is a technique for detecting specific proteins within tissues by staining the same. […] The stained tissues were observed through a fluorescence microscope, and the images are depicted in FIG. 23.
The quantitative analysis results of the images of the tissues stained with the 6E10 antibody and Thioflavin S are presented in FIGS. 24 and 25. Five experimental animals were selected from each group and analyzed. […]

[7] = system: 5xFAD mice; assay: Novel object recognition test; format: in vivo, mouse; details: 10 mg/kg orally once a day for 1 month, between groups, FIG. 20
Description: as §1, §2
For a novel object recognition test, the Ethovision XT 9 system was used to examine whether an animal was interested in a new object. […] An object newly recognizable to the animals was put into the box, and the time and frequency of staying near the object were measured to determine how interested the animals were in it. […]

[8] = system: HEK293 cells; assay: MTT cytotoxicity in HEK293 cells; format: cell-based; details: HEK293 cells, 1, 5 and 10 µM, 24 hours; FIG. 16
Description: as §3

Oc1ccc(C2=Cc3ccc(O)cc3OC2)cc1 [SPA1413, 3-(4-Hydroxyphenyl)-2H-chromen-7-ol]
total arm entries [1]: no significant difference
cell viability (MTT) [2]: increase in cell viability
cell viability after beta amyloid oligomer treatment [3]: significantly increased in cell viability
level of oligomeric Aβ proteins (60-70 kDa) in the cortex and hippocampus [4]: significantly reduce
number of activated microglia showing a positive MHC II reaction [5]: significantly decrease
amyloid plaques in the cortex and hippocampus [6]: significantly reduced
total distance [7]: no significant difference
velocity [7]: no significant difference
cell viability (MTT) [8]: the same as or almost similar to the normal control group
